In patent US7517517B2 (Janssen Pharmaceutica N.V., priority 2002, dated 2009):
Like-named read-outs stand apart in the source and are kept apart here.

Tests used:
rat mGlu1a receptor [1] = target: T1, rat mGlu1a receptor (Rattus norvegicus, UniProt P23385); experiment: Intracellular Ca2+ response in rat mGlu1a receptor expressing CHO-dhfr− cells (FLIPR); type: cell-based; details: for IC50: read-out: IC50, inhibition of the glutamate-induced increase in [Ca2+]i
T1 construct: host or cells: CHO-dhfr- cells

rat mGlu1a receptor [2] = target: T1, rat mGlu1a receptor; experiment: [3H]Compound A binding to rat mGlu1a receptor CHO-dhfr− membranes (saturation, kinetics, inhibition); details: for Ki: 2.5 nM [3H]Compound A, 30 min at 4° C.; for Ki / Hill coefficient: mean ± SD of 3–4 experiments; for Hill coefficient: inhibition of [3H]Compound A-binding; for inhibition of [3H]Compound A binding (in words): rat mGlu1a receptor CHO-dhfr− membranes
rat mGlu1a receptor [3] = target: T1, rat mGlu1a receptor; experiment: [3H]quisqualate binding to rat mGlu1a receptor CHO-dhfr− membranes (saturation, inhibition)
human mGlu1a receptor = target: T2, human mGlu1a receptor (Homo sapiens, UniProt Q13255); experiment: Intracellular Ca2+ response in human mGlu1a receptor expressing L929sA cells (FLIPR); type: cell-based
T2 construct: expressed in transfected cells; host or cells: L929sA cells

rat mGlu5 receptor [4] = target: T3, rat mGlu5 receptor (Rattus norvegicus, UniProt P31424); experiment: Intracellular Ca2+ response in rat mGlu5 receptor expressing CHO-dhfr− cells (FLIPR); type: cell-based; details: tested up to a concentration of 10 μM
T3 construct: host or cells: CHO-dhfr- cells
Experimental: L929sA cells stably expressing the human mGlu1a receptor were obtained as described in Lavreysen et al., Mol. Pharmacol. 61:1244-1254, 2002 and were cultured in Glutamax-I medium supplemented with 10% heat inactivated dialysed foetal calf serum, 0.1 mg/ml streptomycin sulphate and 100 units/ml penicillin. CHO-dhfr^− cells stably expressing the rat mGlu1a, -2, -3, -4, -5 and -6 receptor were a kind gift from S. Nakanishi (Tokyo University, Japan) and were grown in DMEM with Glutamax-I with 10% heat inactivated dialysed foetal calf serum, 0.4 mM L-prolin, 0.2 mg/ml streptomycin sulphate and 200 units/ml penicillin. Cells were kept in an atmosphere of 37° C. and 5% CO2.
Intracellular calcium ion levels ([Ca^2+]i) in human mGlu1a receptor expressing L929sA cells were measured using the Fluorometric Imaging Plate Reader (FLIPR, Molecular Devices, CA, USA), as described in Lavreysen et al., Mol. Pharmacol. 61:1244-1254, 2002. The same procedure was followed for CHO-dhfr^− cells expressing the rat mGlu1a receptor. For the rat mGlu5 receptor, cells were seeded at 30.000 cells/well 2 days before the experiment.

rat mGlu2 receptor = target: T4, rat mGlu2 receptor (Rattus norvegicus, UniProt P31421); experiment: [35S]GTPγS binding to membranes from CHO-dhfr− cells expressing the rat mGlu2 receptor; type: biochemical
T4 construct: host or cells: CHO-dhfr- cells
Experimental: (§1) Confluent cells were washed in ice-cold phosphate-buffered saline and stored at −20° C. until membrane preparation. After thawing, cells were suspended in 50 mM Tris-HCl, pH 7.4 and collected through centrifugation for 10 min at 23,500 g at 4° C. The cells were lysed in 10 mM hypotonic Tris-HCl, pH 7.4. After recentrifugation for 20 min at 30,000 g at 4° C., the pellet was homogenized with an Ultra Turrax homogenizer in 50 mM Tris-HCl, pH 7.4. Protein concentrations were measured by the Bio-Rad protein assay using bovine serum albumin as standard.
(§2) Membranes were thawed on ice and diluted in 10 mM HEPES acid, 10 mM HEPES salt, pH 7.4, containing 100 mM NaCl, 3 mM MgCl2, 3 μM GDP and 10 μg/ml saponine. Assay mixtures contained 10 μg of membrane protein and were pre-incubated with compounds or buffer for 5 min at 37° C. […] [^35S]GTPγS was added to a final concentration of 0.1 nM for another 30 min at 37° C. Reactions were terminated by rapid filtration through Unifilter-96 GF/B filter plates (Packard, Meriden, Conn.) using a 96-well Packard filtermate harvester. Filters were washed 2 times with ice-cold 10 mM NaH2PO4/10 mM Na2HPO4 buffer, pH 7.4. Filter-bound radioactivity was counted in a Microplate Scintillation and Luminesence Counter from Packard.

rat mGlu3 receptor = target: T5, rat mGlu3 receptor (Rattus norvegicus, UniProt P31422); experiment: [35S]GTPγS binding to membranes from CHO-dhfr− cells expressing the rat mGlu3 receptor; type: biochemical
T5 construct: host or cells: CHO-dhfr- cells
Experimental: as §1, §2

rat mGlu4 receptor = target: T6, rat mGlu4 receptor (Rattus norvegicus, UniProt P31423); experiment: [35S]GTPγS binding to membranes from CHO-dhfr− cells expressing the rat mGlu4 receptor; type: biochemical
T6 construct: host or cells: CHO-dhfr- cells
Experimental: as §1, §2

rat mGlu6 receptor = target: T7, rat mGlu6 receptor (Rattus norvegicus, UniProt P35349); experiment: [35S]GTPγS binding to membranes from CHO-dhfr− cells expressing the rat mGlu6 receptor; type: biochemical
T7 construct: host or cells: CHO-dhfr- cells
Experimental: as §1, §2

rat mGlu1a receptor [5] = target: T1, rat mGlu1a receptor; experiment: IP response (basal IP accumulation) in rat mGlu1a receptor expressing CHO-dhfr− cells; type: cell-based
AMPA receptor = experiment: [3H]Ro 48-8587 binding to rat forebrain membranes; details: [3H]Ro 48-8587, rat forebrain; tested up to 10 μM
Experimental: (§3) Tissue preparation. Male Wistar rats (˜200 g) were sacrificed by decapitation. The brains were rapidly removed and forebrain was dissected. The tissue was homogenized with an Ultra Turrax in 20 volumes of ice-cold H2O and was centrifuged at 48,000 g for 20 min. After homogenisation using a DUAL homogeniser, membranes were washed by centrifugation at 48,000 g for 10 min. The pellet was then suspended in 20 volumes of 50 mM Tris-HCl, pH 7.4 containing 0.04% Triton X-100 and again centrifuged at 48,000 g for 20 min. The final pellet was frozen at −80° C.
(§4) In vitro binding assay. At the day of the experiment, the pellet was thawed, washed and rehomogenised using a DUAL in ice-cold 50 mM Tris-acetate, pH 7.4. Assay conditions for the different radioligands were as follows. The final concentration of membrane in the assay was 20 mg/ml (wet weight) for [^3H]Ro 48-8587 and [^3H]L689560 and was 10 mg/ml (wet weight) for [^3H]CGP39653 and [^3H]MK-801. Radioligand concentrations of 2 nM [^3H]Ro 48-8587, 2 nM [^3H]L689560, 2 nM [^3H]CGP39653 and 3 nM [^3H]MK-801 were used. […] For [^3H]L689560 and [^3H]MK-801 binding, 100 μM D-serine or 10 μM phencyclidine were used to define non-specific binding, respectively. […] Radioactivity collected on the filters was counted as above.

[6] = target: T8, glycine site of the NMDA receptor (Rattus norvegicus, UniProt P35439); experiment: [3H]L689560 binding to rat forebrain membranes; details: [3H]L689560, rat forebrain; tested up to 10 μM
T8 construct: from tissue; host or cells: rat forebrain membranes
Experimental: as §3, §4

[7] = system: glutamate site of the NMDA receptor; experiment: [3H]CGP39653 binding to rat forebrain membranes; details: [3H]CGP39653, rat forebrain; tested up to 10 μM
Experimental: as §3, §4

mGlu1 receptor = mGlu1 receptor (Rattus norvegicus, UniProt P23385); experiment: [3H]Compound A binding to rat brain membranes (cortex, hippocampus, striatum, cerebellum); details: tested up to 30 μM
Experimental: Tissue preparation. Male Wistar rats (˜200 g) were sacrificed by decapitation. The brains were rapidly removed and cortex, hippocampus, striatum and cerebellum were immediately dissected. The fresh tissue was homogenized with an Ultra Turrax in 20 volumes of 50 mM Tris-HCl, pH 7.4 and tissue was centrifuged at 23,500 g for 10 min. After homogenisation using a DUAL homogeniser, membranes were washed twice by centrifugation at 23,500 g for 10 min. The final pellet was suspended in 10 volumes of 50 mM Tris-HCl, pH 7.4 and frozen at −80° C.
In vitro binding assay. After thawing, membranes from rat cortex, cerebellum, striatum and hippocampus were rehomogenized using a DUAL and suspended in ice-cold binding buffer containing 50 mM Tris-HCl, 1.2 mM MgCl2, 2 mM CaCl2, pH 7.4. The binding assay was carried out in a total volume of 0.5 ml containing 2.5 nM [^3H]Compound A and a membrane aliquot corresponding to 40 μg for cerebellar membranes, 60 μg for hippocampal membranes, 80 μg for striatal membranes or 150 μg for cortical membranes. […] After incubation for 30 min at 4° C., the labelled membranes were washed and harvested by rapid vacuum filtration over Whatman GF/C glass-fibre filters using a 40-well filtration manifold and radioactivity collected on the filters was counted as above.
Data analysis was performed using the GraphPad Prism program (GraphPad Prism Software, Inc., San Diego, Calif.). Saturation binding experiments were analysed using a non-linear regression analysis. Inhibition curves were fitted using non-linear regression analysis fitting the one-site competition equation: Y=Bottom+((Top−Bottom)/1+10^X-LogIC50). Ki values were calculated using the Cheng-Prusoff equation: Ki=IC50/[1+([C]/KD)] where C is the concentration of radioligand and KD is the dissociation constant of the radioligand (Cheng and Prusoff, Biochem. Pharmacol. 22, 3099-3108, 1973). The observed on (kob) and off (koff) rate were calculated from association-dissociation curves using the one-phase-exponential association and decay equations in the Prism program, respectively. kon was calculated by subtracting koff from kob and dividing by the radioligand concentration. The two-tailed Student's t-test was used for statistical evaluation of the binding data: * p<0.05, ** p<0.01 and *** p<0.001. The Dunnett's t-test following a 2-way analysis of variance (with as factors compound concentration and experiment) were used to analyse the data from the IP experiments.

rat mGlu5 receptor [8] = target: T3, rat mGlu5 receptor; experiment: [3H]MPEP binding to rat mGlu5 receptor CHO-dhfr− membranes; details: rat mGlu5 receptor containing membranes; positive control
[9] = ratio of IC50 values, rat mGlu1a Ca2+ assay
[10] = read-out: IC50 for inhibition of glutamate-induced [35S]GTPγS activation
[11] = rat mGlu1a receptor CHO-dhfr− membranes
[12] = inhibition of [3H]quisqualate binding, rat mGlu1a receptor CHO-dhfr− membranes, mean ± SD of 2 experiments

T1 sequence (P23385 19-1199): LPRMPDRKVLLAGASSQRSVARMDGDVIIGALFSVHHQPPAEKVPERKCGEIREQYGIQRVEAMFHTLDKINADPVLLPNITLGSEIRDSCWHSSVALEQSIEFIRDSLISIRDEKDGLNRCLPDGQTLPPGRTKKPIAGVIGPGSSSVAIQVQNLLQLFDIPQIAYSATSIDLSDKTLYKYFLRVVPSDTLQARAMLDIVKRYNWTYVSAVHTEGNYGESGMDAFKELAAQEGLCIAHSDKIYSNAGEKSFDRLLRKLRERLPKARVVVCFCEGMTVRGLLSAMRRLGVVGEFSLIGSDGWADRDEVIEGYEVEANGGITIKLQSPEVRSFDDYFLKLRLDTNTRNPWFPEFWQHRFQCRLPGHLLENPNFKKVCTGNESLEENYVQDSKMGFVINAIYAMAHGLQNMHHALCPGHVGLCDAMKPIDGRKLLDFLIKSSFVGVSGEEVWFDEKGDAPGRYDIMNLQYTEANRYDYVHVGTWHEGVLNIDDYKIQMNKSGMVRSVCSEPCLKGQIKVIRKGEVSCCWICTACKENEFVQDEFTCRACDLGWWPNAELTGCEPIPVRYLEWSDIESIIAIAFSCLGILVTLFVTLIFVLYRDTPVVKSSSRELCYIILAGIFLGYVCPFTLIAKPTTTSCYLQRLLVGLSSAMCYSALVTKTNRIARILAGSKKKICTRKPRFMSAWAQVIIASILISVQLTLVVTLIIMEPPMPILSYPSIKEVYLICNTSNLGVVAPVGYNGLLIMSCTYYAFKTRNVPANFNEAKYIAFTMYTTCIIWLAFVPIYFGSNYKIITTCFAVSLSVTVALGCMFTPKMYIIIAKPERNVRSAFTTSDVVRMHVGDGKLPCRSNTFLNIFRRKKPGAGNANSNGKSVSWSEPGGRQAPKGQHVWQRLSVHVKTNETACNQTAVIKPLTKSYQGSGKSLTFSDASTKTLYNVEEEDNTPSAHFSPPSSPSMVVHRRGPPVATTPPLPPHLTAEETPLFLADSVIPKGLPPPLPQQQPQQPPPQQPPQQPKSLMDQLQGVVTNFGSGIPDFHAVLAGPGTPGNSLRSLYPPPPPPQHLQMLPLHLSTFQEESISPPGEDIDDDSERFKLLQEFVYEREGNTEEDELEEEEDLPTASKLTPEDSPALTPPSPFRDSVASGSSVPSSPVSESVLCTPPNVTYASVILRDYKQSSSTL
T6 sequence (P31423 33-912): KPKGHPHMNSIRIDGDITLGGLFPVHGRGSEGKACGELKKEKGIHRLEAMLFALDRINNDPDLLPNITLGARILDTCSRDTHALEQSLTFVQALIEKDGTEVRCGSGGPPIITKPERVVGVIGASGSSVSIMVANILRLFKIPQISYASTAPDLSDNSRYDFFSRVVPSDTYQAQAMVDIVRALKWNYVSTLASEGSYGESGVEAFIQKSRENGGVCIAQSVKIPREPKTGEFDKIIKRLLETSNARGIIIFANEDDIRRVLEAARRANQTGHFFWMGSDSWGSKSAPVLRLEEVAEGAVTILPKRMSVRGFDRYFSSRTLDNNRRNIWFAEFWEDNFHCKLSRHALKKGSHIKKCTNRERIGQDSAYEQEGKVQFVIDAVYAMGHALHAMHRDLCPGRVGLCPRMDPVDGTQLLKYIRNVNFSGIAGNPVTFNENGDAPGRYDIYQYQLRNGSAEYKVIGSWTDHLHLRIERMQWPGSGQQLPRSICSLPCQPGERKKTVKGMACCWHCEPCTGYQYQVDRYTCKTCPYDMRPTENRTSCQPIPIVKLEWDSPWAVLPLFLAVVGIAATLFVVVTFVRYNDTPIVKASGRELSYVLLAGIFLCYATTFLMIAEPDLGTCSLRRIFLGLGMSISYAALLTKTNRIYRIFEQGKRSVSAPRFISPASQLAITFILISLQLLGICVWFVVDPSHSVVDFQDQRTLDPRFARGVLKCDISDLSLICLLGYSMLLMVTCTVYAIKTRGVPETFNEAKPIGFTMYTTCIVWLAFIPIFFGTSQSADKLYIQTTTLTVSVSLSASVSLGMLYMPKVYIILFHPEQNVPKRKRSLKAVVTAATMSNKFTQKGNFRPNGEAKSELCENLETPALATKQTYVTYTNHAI
T4 sequence (P31421 19-872): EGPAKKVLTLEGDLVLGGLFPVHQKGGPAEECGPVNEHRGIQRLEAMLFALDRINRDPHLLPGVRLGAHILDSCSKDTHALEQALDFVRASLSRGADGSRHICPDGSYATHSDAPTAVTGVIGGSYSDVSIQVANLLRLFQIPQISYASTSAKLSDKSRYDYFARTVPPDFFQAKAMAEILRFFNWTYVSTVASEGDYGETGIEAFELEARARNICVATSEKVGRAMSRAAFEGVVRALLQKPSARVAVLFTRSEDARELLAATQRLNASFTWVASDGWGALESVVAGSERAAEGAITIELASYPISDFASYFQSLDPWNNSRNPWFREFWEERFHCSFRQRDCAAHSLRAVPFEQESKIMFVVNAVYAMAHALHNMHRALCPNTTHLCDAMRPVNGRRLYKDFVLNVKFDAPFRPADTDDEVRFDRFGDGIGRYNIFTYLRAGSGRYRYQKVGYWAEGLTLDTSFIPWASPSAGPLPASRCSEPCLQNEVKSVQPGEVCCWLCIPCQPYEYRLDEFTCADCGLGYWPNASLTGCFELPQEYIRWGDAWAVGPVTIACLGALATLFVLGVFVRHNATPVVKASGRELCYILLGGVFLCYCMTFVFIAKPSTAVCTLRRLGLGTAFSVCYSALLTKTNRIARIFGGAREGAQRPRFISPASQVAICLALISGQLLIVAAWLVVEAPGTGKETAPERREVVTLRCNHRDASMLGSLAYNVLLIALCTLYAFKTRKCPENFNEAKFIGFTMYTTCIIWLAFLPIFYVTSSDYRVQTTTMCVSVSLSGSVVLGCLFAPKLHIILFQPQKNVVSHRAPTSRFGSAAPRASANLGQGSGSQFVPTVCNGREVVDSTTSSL
T7 sequence (P35349 24-871): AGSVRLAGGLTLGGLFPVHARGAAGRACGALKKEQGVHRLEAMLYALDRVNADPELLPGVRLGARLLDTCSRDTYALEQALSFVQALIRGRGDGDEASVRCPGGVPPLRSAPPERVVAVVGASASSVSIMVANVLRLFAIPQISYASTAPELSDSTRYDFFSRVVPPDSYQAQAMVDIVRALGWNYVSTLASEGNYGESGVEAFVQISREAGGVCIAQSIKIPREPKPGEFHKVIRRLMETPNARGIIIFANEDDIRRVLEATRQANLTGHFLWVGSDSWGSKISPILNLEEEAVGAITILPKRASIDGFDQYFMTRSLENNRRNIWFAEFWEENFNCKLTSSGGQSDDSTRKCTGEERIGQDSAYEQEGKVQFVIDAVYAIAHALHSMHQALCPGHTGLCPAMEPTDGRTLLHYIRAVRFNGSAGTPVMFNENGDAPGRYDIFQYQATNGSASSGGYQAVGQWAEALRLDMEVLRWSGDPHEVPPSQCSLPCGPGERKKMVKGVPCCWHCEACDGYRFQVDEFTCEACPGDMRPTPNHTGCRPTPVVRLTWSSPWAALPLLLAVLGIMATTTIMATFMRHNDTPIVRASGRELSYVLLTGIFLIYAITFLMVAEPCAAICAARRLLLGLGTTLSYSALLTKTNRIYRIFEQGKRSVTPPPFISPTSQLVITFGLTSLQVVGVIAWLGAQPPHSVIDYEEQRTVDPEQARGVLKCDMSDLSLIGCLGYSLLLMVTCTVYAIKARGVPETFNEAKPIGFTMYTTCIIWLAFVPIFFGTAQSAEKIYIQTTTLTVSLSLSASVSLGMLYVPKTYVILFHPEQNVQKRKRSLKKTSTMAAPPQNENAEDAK
T5 sequence (P31422 23-879): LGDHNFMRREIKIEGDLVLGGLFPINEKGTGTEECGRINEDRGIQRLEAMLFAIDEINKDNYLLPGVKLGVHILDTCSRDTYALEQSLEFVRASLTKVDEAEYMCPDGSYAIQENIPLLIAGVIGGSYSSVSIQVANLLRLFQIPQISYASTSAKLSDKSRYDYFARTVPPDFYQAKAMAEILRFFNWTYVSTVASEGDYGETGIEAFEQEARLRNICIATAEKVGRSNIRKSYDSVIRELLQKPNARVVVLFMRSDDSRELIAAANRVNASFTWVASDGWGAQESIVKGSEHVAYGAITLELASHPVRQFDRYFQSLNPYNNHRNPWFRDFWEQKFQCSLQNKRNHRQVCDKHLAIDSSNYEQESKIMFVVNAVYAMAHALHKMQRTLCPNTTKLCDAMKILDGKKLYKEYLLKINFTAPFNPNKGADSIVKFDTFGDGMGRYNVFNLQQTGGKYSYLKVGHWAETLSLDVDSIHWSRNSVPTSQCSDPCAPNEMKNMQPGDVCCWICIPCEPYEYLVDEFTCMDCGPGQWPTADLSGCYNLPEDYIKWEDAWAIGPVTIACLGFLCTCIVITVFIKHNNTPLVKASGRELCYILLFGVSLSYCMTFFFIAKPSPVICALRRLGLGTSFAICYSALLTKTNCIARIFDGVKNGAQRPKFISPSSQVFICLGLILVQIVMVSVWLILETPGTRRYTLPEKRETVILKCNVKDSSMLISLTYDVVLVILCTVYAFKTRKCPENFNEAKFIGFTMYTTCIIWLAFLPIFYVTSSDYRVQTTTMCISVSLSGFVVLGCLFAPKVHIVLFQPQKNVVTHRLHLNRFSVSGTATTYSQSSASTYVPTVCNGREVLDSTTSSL

CCOC(=O)[C@]12CC1/C(=N\O)c1ccccc1O2 (mixture of isomers) [CPCCOEt, reference compound]
IC50 (rat mGlu1a receptor [1]; CHO-dhfr− cells expressing rat mGlu1a, same assay): 10.3 ± 0.8 µM | Ki (rat mGlu1a receptor [2]): 4900 nM | Ki (rat mGlu1a receptor [3]): > 1000 µM

O=C(Cc1ccccc1)c1ccc2nc3c(cc2c1)CCCO3 [Compound A]
mode of antagonism (rat mGlu1a receptor [1]; glutamate concentration-response curve in absence and presence of compound (FIG. 1B)): non-competitive | inhibition of mGlu1a receptor-mediated signalling (rat mGlu1a receptor [1]; in the presence of 100 nM-1 μM compound): Complete inhibition | times more potent than BAY 36-7620 (rat mGlu1a receptor [1]; [9]): about 8 times | times more potent than CPCCOEt (rat mGlu1a receptor [1]; [9]): ~500 times | IC50 (rat mGlu1a receptor [1]): 0.0216 ± 0.005 µM | IC50 (human mGlu1a receptor): 0.0104 ± 0.0047 µM | inhibition of glutamate-induced Ca2+ signaling (rat mGlu5 receptor [4]): did not inhibit | glutamate Emax upon addition of compound (positive allosteric modulation) (rat mGlu2 receptor; 10 μM compound together with glutamate, rat mGlu2): not increased | IC50 (rat mGlu2 receptor; [10]): > 30 µM | agonist activity in [35S]GTPγS assay (rat mGlu2 receptor; up to 30 μM, rat mGlu2): did not exhibit agonist activity | glutamate Emax upon addition of compound (positive allosteric modulation) (rat mGlu3 receptor; 10 μM compound together with glutamate, rat mGlu3): not increased | IC50 (rat mGlu3 receptor; [10]): > 30 µM | agonist activity in [35S]GTPγS assay (rat mGlu3 receptor; up to 30 μM, rat mGlu3): did not exhibit agonist activity | glutamate Emax upon addition of compound (positive allosteric modulation) (rat mGlu4 receptor; 10 μM compound together with glutamate, rat mGlu4): not increased | IC50 (rat mGlu4 receptor; [10]): > 30 µM | agonist activity in [35S]GTPγS assay (rat mGlu4 receptor; up to 30 μM, rat mGlu4): did not exhibit agonist activity | glutamate Emax upon addition of compound (positive allosteric modulation) (rat mGlu6 receptor; 10 μM compound together with glutamate, rat mGlu6): not increased | IC50 (rat mGlu6 receptor; [10]): > 30 µM | agonist activity in [35S]GTPγS assay (rat mGlu6 receptor; up to 30 μM, rat mGlu6): did not exhibit agonist activity | decrease of basal IP accumulation (rat mGlu1a receptor [5]; 1 μM compound, p<0.05): 24±4% | maximal decrease of basal IP accumulation (rat mGlu1a receptor [5]; 100 μM compound): 33±3% | Ki (rat mGlu1a receptor [2]): 1.35 ± 0.99 nM | Hill coefficient (rat mGlu1a receptor [2]): 0.94 ± 0.04 | Ki (rat mGlu1a receptor [3]): > 1000 µM | effect on [3H]quisqualate binding (in words) (rat mGlu1a receptor [3]; [11]): did not displace | binding to the AMPA receptor (AMPA receptor): did not bind | binding to the glycine site of the NMDA receptor [6]: nor did it bind | binding to the glutamate site of the NMDA receptor [7]: nor did it bind

Cc1cc(C(=O)O)ccc1[C@H](N)C(=O)O [LY367385, reference compound]
Ki (rat mGlu1a receptor [2]): > 1e+06 nM | inhibition of [3H]Compound A binding (in words) (rat mGlu1a receptor [2]): did not inhibit | Hill coefficient (rat mGlu1a receptor [3]; [12]): 0.99 ± 0.01 | Ki (rat mGlu1a receptor [3]; [12]): 1.18 ± 0.47 µM

Cc1cccc(C#Cc2ccccc2)n1 [MPEP, reference compound]
effect on [3H]Compound A binding to rat cerebellar membranes (mGlu1 receptor): did not affect

O=C(NC12CC3CC(CC(C3)C1)C2)c1cnc2ccccc2n1 [NPS 2390, reference compound]
Ki (rat mGlu1a receptor [2]): 1.36 ± 0.5 nM | Hill coefficient (rat mGlu1a receptor [2]): 0.97 ± 0.02 | Ki (rat mGlu1a receptor [3]; [12]): > 1000 µM | effect on [3H]quisqualate binding (in words) (rat mGlu1a receptor [3]; [11]): did not affect

Cc1cccc(C#Cc2ccccc2)n1 [[^3H]MPEP]
specific binding (rat mGlu5 receptor [8]): 95%

N[C@@H](Cn1oc(=O)[nH]c1=O)C(=O)O [quisqualate, reference compound]
inhibition of [3H]Compound A binding (in words) (rat mGlu1a receptor [2]): did not inhibit | Hill coefficient (rat mGlu1a receptor [3]; [12]): 0.98 ± 0.01
